From patent US7674813B2, “Heterocyclic sulfonamide inhibitors of beta amyloid production containing an azole” (Wyeth, priority 2004, dated 2010) come the findings set out here.

Each structure is given as a SMILES string.

Holding throughout (type): cell-based
Assay [1] relates to amyloid precursor protein (APP) proteolysis. The experiment in a line: Repressor Release Assay (RRA). To be noted: transfected CHO-K1 cells; for fold induction at 20 µg/mL: Cricetulus griseus, CHO-K1, all compounds tested at 20 μg/mL, luciferase activity over diluent control, read-out: RRA data (Fold increase of APPI). Also on record: key to RRA data (footnote symbols): **: Inactive due to toxicity; however, this compound, at 3-4 μM, reduces Aβ levels by 50% in CHO cells transfected with human APP695 as measured by ELISA without exhibiting toxicity.; ***: Inactive; however, this compound, at 1-4 μM, reduces Aβ levels by 50% in CHO cells transfected with human APP695 as measured by ELISA without exhibiting toxicity. As for the experimental part:
The beta amyloid inhibitory activity of many of the compounds of the present invention has been determined using the Repressor Release Assay (RRA). See, Table 3 below. A compound is considered active in RRA if it leads to at least a 1.5 fold increase in luciferase activity at 20 μg/mL and is non-toxic.
The compound is considered active in RRA if it leads to at least a 1.5 fold increase in APPI as measured by an increase in luciferase activity at 20 μg/mL and is non-toxic. Shuey, D. J., Sheiffele, P., Jones, D., Cockett, M. I., and Quinet, E. M. (1999) Repressor release: a useful tool for monitoring amyloid precursor protein (APP) proteolysis in mammalian cells. Society for Neuroscience Abstracts, Vol. 25, 29th Annual Meeting of Society for Neuroscience, Miami Beach, Fla., Oct. 23-28, 1999.
CHO—K1 cells are cultured in whole DMEM media (DMEM—High Glucose with 10% fetal bovine serum, 1% Non-essential Amino Acids, and 1% Penicillin-Streptomycin) at 37° C. with 5% CO2. Two million cells are plated into 10-cm dishes 24 hrs prior to transfection.
Transient transfections are completed as recommended by Gibco BRL using their Lipofectamine Plus system. First, 6 μg of pRSVO-luc and 6 μg of APP-lacI construct DNA are added to 460 μL Opti-Mem transfection media and incubated with 30 μL Plus reagent for 15 minutes. Then, a lipid mixture of 40 μL Lipofectamine reagent and 460 μL Opti-Mem transfection media is incubated with the DNA-Plus reagent mixture for 15 minutes. During the DNA-lipid incubation, the CHO—K1 cells are washed once and covered in 5.0 mL DMEM media without Penicillin-Streptomycin. The DNA-lipid preparation is then layered onto these cells and incubated at 37° C. overnight.
One and one half million transfected cells per well (100 μL total volume) are plated into sterile, opaque Packard 96-well Cultur-Plates in clear DMEM whole media (DMEM—without phenol red) and incubated at 37° C. with 5% CO2 for 3-5 hours.
Compounds are diluted using two different protocols; one protocol is used for compounds supplied neat (weighed powder in vial) and the other protocol is used for compounds supplied in solution (20 mM in DMSO in 96-well plates). For both protocols, 25 mM Hepes and 25 mM Hepes/1% DMSO are prepared fresh to be used as diluent. The Hepes/DMSO is used as the diluent control on all experimental plates.
The following Table 1 depicts the steps for compound dilution (the last step is the addition of compound to cells/media in tissue culture plate):
Because some compounds arrive in 96-well format at 20 mM, the following Table 2 represents the protocol for their dilution (an average molecular weight of these compounds was used to calculate these dilutions and as above, the last step is the addition of compound to cells/media in tissue culture plate):
Once compounds are diluted, they are applied in duplicate on cells in tissue culture plates (prepared above). Cells are incubated with compound at 37° C. with 5% CO2 for an additional 36-48 hours.
Luciferase assays (LucLite reagent, Packard) are performed and are read on a Packard TopCount instrument. Media is removed from each 96-well plate and replaced with 100 μL PBS per well (with Mg^2+ and Ca^2+). An equal volume (100 μL) of the LucLite lysis/substrate buffer is added to each well and the plates are sealed and mixed in the dark on a rotary shaker for 15-30 minutes at room temperature. Luciferase readings are then taken on the TopCount instrument. Measurements are expressed as relative light units (RLU) and are calculated and analyzed in MS Excel as follows:
Fold Increase: amount of luciferase activity (measured in relative light units) over diluent control.
SEM: standard error of the mean for fold increase.
Activity: A compound is considered active if it results in at least a 1.5 fold increase in luciferase activity at 20 μg/mL.
Toxicity: determined by loss of signal (<0.75 fold increase).

In assay [2] the test system is beta amyloid 42. Kind of assay: Aβ40/42 ELISA Assay (Aβ42). The settings on record: Cricetulus griseus; CHO cells carrying the APP-REP-NL plasmid, 22 hours, sandwich ELISA. As for the experimental part: (§1) Compounds are diluted from DMSO stocks to 2 μM and below in a cell culture medium. Compounds are then applied to CHO cells carrying the APP-REP-NL plasmid [Sudhir et. al, J. Biolog. Chem. 267:25602-25608 (1992)] for a period of 22 hours. After the conditioning period, medium is collected, diluted in assay buffer containing protein, and samples, controls, and synthetic peptide standards are incubated on a prepared ELISA plate. Using a sandwich ELISA with antibodies specifically directed against the carboxyl terminus of beta amyloid 40 or 42 (analogous to the method reported by Haugabook et al., J. Neurosci. Methods 108:171-179 (2001) but using goat anti-mouse IgG1 (source: Southern Biotech) as the anchor, 6E10 as the capture antibody (Source: SENETEK), rabbit antiAβ40 and antiAβ42 (source: QCB) and APL-donkey anti-rabbit IgG (H+L, source: Southern Biotech) as the detection antibody), the effect of the compound treatment on the cellular production of extracellular beta amyloid is quantified. Cells treated with compound are subsequently incubated in cell culture medium containing MTS-formazan. After a short incubation period, MTS/medium containing plates are read in a spectrophotometer to determine the extent to which compound toxicity affected the cell's metabolism and ability to synthesize beta amyloid.
(§2) A. Test Samples: compound samples are supplied as 20 mM stock solutions in a 100% DMSO solution.
(§3) B. APP-REP-NL cells: Qualified cell lines are carried from week to week using 1:100 dilutions and are cultured in DMEM supplemented with 1× antibiotic/antimycotic, 200 ug/ml of G418 antibiotic, and 10% certified fetal calf serum. Cells are also banked in liquid nitrogen. Periodically, beta amyloid production is assessed, and cells are either kept in culture or replaced with progenitors at full expression.
(§4) C. Antibodies: From certified lots that have already been qualified in this assay. Antibodies are stored in small frozen aliquots at −80° C. that are thawed and used.
(§5) A compound is considered active if it has an EC50 for Aβ40 reduction of <100 μM and no toxicity at doses in the vicinity of the EC50.
A general note: In an ELISA, binding on a coated surface is turned into a signal by an enzyme label.

Assay [3] concerns beta amyloid 40. Kind of assay: Aβ40/42 ELISA Assay (Aβ40). To be noted: Cricetulus griseus; CHO cells carrying the APP-REP-NL plasmid, 22 hours, sandwich ELISA. As for the experimental part: as §1, §2, §3, §4, §5

Take `CC(C)C(NS(=O)(=O)c1ccc(Cl)s1)c1ccnn1-c1ccc(F)cc1` (racemic) [Example 15, 5-Chloro-N-{1-[1-(4-fluorophenyl)-1H-pyrazol-5-yl]-2-methylpropyl}thiophene-2-sulfonamide]: the fold induction at 20 µg/mL in assay [1] was 2.8. The EC50 in assay [2] amounted to 5100 nM; in assay [3], 4000 nM.

Turning to `CCC(CC)C(NS(=O)(=O)c1ccc(Cl)s1)c1ccnn1Cc1ccc(OC)cc1` (stereo not drawn) [Example 1, 5-Chloro-N-{2-ethyl-1-[1-(4-methoxybenzyl)-1H-pyrazol-5-yl]butyl}thiophene-2-sulfonamide], the fold induction at 20 µg/mL in assay [1] came out at 7.8. Also, the EC50 in assay [2] and in assay [3] was 1000 nM each time.

For the compound `CCC(CC)C(NS(=O)(=O)c1ccc(Cl)cc1)c1ccnn1Cc1ccc(OC)cc1` (stereo not drawn) [Example 2, 4-Chloro-N-{2-ethyl-1-[1-(4-methoxybenzyl)-1H-pyrazol-5-yl]butyl}benzenesulfonamide], the fold induction at 20 µg/mL in assay [1] amounted to 11.3. For the same compound, the values for the EC50 in assay [2] and in assay [3] were 13000 nM and 6400 nM, respectively.

On to `CCC(CC)C(NS(=O)(=O)c1ccc(Br)cc1)c1ccnn1Cc1ccc(OC)cc1` (stereo not drawn) [Example 3, 4-Bromo-N-{2-ethyl-1-[1-(4-methoxybenzyl)-1H-pyrazol-5-yl]butyl}benzenesulfonamide], for which the fold induction at 20 µg/mL in assay [1] came to 5.9. Moreover, the concentration for a half-maximal effect (EC50) in assay [2] was 10000 nM; in assay [3] it was 6800 nM.

As for `COc1ccc(Cn2nccc2C(C)NS(=O)(=O)c2ccc(Cl)s2)cc1` (stereo not drawn) [Example 4, 5-Chloro-N-{1-[1-(4-methoxybenzyl)-1H-pyrazol-5-yl]ethyl}thiophene-2-sulfonamide], the fold induction at 20 µg/mL in assay [1] was 2.3. For the same compound, the EC50 was determined as 1300 nM in assay [2] and 1800 nM in assay [3].

For the compound `COc1ccc(Cn2nccc2C(NS(=O)(=O)c2ccc(Cl)s2)C(C)C)cc1` (stereo not drawn) [Example 5, 5-Chloro-N-{1-[1-(4-methoxybenzyl)-1H-pyrazol-5-yl]-2-methylpropyl}thiophene-2-sulfonamide], the fold induction at 20 µg/mL in assay [1] stood at 3.5. Besides, the EC50 in assay [2] came to 900 nM; in assay [3], 1100 nM.

`CCCC(NS(=O)(=O)c1ccc(Cl)s1)c1ccnn1Cc1ccc(OC)cc1` (stereo not drawn) [Example 6, 5-Chloro-N-{1-[1-(4-methoxybenzyl)-1H-pyrazol-5-yl]butyl}thiophene-2-sulfonamide]: the fold induction at 20 µg/mL in assay [1] turned out to be 4.7. The EC50 in assay [2] was 1400 nM; in assay [3], 1500 nM.

Consider `CCCCn1nccc1C(NS(=O)(=O)c1ccc(Cl)s1)C(CC)CC` (stereo not drawn) [Example 7, N-[1-(1-Butyl-1H-pyrazol-5-yl)-2-ethylbutyl]-5-chlorothiophene-2-sulfonamide], for which, in assay [1], the fold induction at 20 µg/mL turned out to be 5.4. For the same compound, the EC50 in assay [2] was determined as 2700 nM; in assay [3], 2400 nM.

Turning to `CCC(CC)C(NS(=O)(=O)c1ccc(Cl)s1)c1ccnn1-c1ccc(OC)cc1` (stereo not drawn) [Example 10, 5-Chloro-N-{2-ethyl-1-[1-(4-methoxyphenyl)-1H-pyrazol-5-yl]butyl}thiophene-2-sulfonamide], in assay [1], the fold induction at 20 µg/mL is 1.7. Besides, the EC50 in assay [2] came out at 10100 nM; in assay [3] it was 4000 nM.

Consider `CCC(CC)C(NS(=O)(=O)c1ccc(Cl)s1)c1ccnn1-c1ccc(O)cc1` (stereo not drawn) [Example 11, 5-Chloro-N-{2-ethyl-1-[1-(4-hydroxyphenyl)-1H-pyrazol-5-yl]butyl}thiophene-2-sulfonamide], for which the fold induction at 20 µg/mL in assay [1] was 3. For the same compound, the EC50 came to 2700 nM in assay [2] and 1000 nM in assay [3].

With `CC(C)C(NS(=O)(=O)c1ccc(Cl)s1)c1ccnn1-c1ccccc1` (stereo not drawn) [Example 12, 5-Chloro-N-[2-methyl-1-(1-phenyl-1H-pyrazol-5-yl)propyl]thiophene-2-sulfonamide], the “RRA data (footnote symbols)” value in assay [1] (tested at 20 μg/mL) is reported as “***”. The EC50 in assay [2] turned out to be 3300 nM; in assay [3] it was 1400 nM.

Turning to `CC(NS(=O)(=O)c1ccc(Cl)s1)c1ccnn1-c1ccccc1` (stereo not drawn) [Example 13, 5-Chloro-N-[1-(1-phenyl-1H-pyrazol-5-yl)ethyl]thiophene-2-sulfonamide], the fold induction at 20 µg/mL in assay [1] is 6.4. The EC50 was 5100 nM in assay [2] and 4800 nM in assay [3].

As to `Cc1ccc(-n2nccc2C(NS(=O)(=O)c2ccc(Cl)s2)C(C)C)cc1` (stereo not drawn) [Example 14, 5-Chloro-N-{2-methyl-1-[1-(4-methylphenyl)-1H-pyrazol-5-yl]propyl}thiophene-2-sulfonamide], in assay [1], the fold induction at 20 µg/mL is 17.7. Further, the EC50 in assay [2] and in assay [3] was 1200 nM in each case.

On to `Cc1cccc(-n2nccc2C(NS(=O)(=O)c2ccc(Cl)s2)C(C)C)c1` (stereo not drawn) [Example 16, 5-Chloro-N-{2-methyl-1-[1-(3-methylphenyl)-1H-pyrazol-5-yl]propyl}thiophene-2-sulfonamide], for which, in assay [1], the fold induction at 20 µg/mL was determined as 4. The figures for the 50% effective concentration (EC50) in assay [2] and in assay [3] were 4400 nM and 3500 nM, respectively.

As to `CCC(CC)C(NS(=O)(=O)c1ccc(Cl)s1)c1ncnn1Cc1ccc(F)cc1` (stereo not drawn) [Example 19, 5-Chloro-N-{2-ethyl-1-[1-(4-fluorobenzyl)-1H-1,2,4-triazol-5-yl]butyl}thiophene-2-sulfonamide], in assay [1], the fold induction at 20 µg/mL is 3.9.

Take `CCC(CC)C(NS(=O)(=O)c1ccc(Cl)s1)c1nccn1Cc1ccccc1` (stereo not drawn) [Example 28, N-[1-(1-Benzyl-1H-imidazol-2-yl)-2-ethylbutyl]-5-chlorothiophene-2-sulfonamide]: the fold induction at 20 µg/mL in assay [1] amounted to 1.5. This compound registered an EC50 in assay [3] of 19400 nM.

As a reminder, the EC50 is the concentration giving half of the maximal effect.
